Data reported in patent US7166622B2, “Substituted phenylsulfonamide inhibitors of beta amyloid production” (Wyeth, priority 2002, dated 2007).
Where two headings read alike, the source gives them in different places.

Tests used:
beta amyloid production = experiment: Repressor Release Assay (RRA); type: cell-based; conditions: for APPI % of Example #98: relative to Example 98
How it was run: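 Read-out is luciferase luminescence (RLU) after 36-48 h duplicate compound exposure of transfected CHO-K1 cells. These cells carry transiently introduced APP-lacI and pRSVO-luc DNA. Diluent control was 25 mM Hepes/1% DMSO; toxicity recorded as binary score (1 non-toxic, 0 toxic).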

CHO-K1 cells = experiment: Toxicity in RRA (loss of luciferase signal); conditions: toxicity = loss of signal (<0.75 fold increase)
Description: The beta amyloid inhibitory activity of the compounds of the present invention was determined using the Repressor Release Assay (RRA).
“Fold Increase” refers to the amount of luciferase activity (measured in relative light units) over diluent control. “SEM” refers to the standard error of the mean for fold increase.

[1] = Conc 10 μg/ml, luciferase activity over diluent control, read-out: APPI Fold Increase
[2] = Conc 20 μg/ml, luciferase activity over diluent control, read-out: APPI Fold Increase
[3] = Conc 20 μg/ml, luciferase activity over diluent control

| Compound | fold induction at 10 µg/mL (beta amyloid production; [1]) | (%)APPI Toxicity (CHO-K1 cells; Conc 10 μg/ml) | (%)APPI Toxicity (CHO-K1 cells; Conc 20 μg/ml) | further results |
| --- | --- | --- | --- | --- |
| CC[C@H](C)[C@H](NS(=O)(=O)c1ccc(Cl)cc1)C(O)c1ccc(N(C)C)cc1 (stereo partly drawn) [Example 183, 4-chloro-N-{(1S,2S)-1-[[4-(dimethylamino)phenyl](hydroxy)methyl]-2-methylbutyl}benzenesulfonamide] | 4.49 | 1 (1=non-toxic) | – | – |
| CC[C@H](C)[C@@H](CO)N(C)S(=O)(=O)c1ccc(Cl)cc1 [Example 90, 4-Chloro-N-methyl-N-[(1S,2S)-1-(hydroxymethyl)-2-methylbutyl]benzenesulfonamide] | – | – | 1 (1=non-toxic) | fold induction at 20 µg/mL (beta amyloid production; [2]): 1.6 |
| CCC[C@H](CC)[C@@H](CO)NS(=O)(=O)c1ccc(Br)cc1 [Example 77, 4-bromo-N-[(1S,2S)-2-ethyl-1-(hydroxymethyl)pentyl]benzenesulfonamide] | – | – | – | fold induction at 20 µg/mL (beta amyloid production; Conc 20 μg/ml, luciferase activity (RLU) over diluent control, read-out: APPI Fold Increase): 5.9; (%)APPI Toxicity (CHO-K1 cells; Conc 20 μg/ml, 1=non-toxic, 0=toxic): 1 (1=non-toxic) |
| CC[C@H](C)[C@@H](CO)N(CC1CCC1)S(=O)(=O)c1ccc(Cl)cc1 [Example 44, 4-chloro-N-(cyclobutylmethyl)-N-[(1S,2S)-1-(hydroxymethyl)-2-methylbutyl] benzenesulfonamide] | – | – | 1 (1=non-toxic) | APPI Fold Increase (beta amyloid production; [3]): 2.6 fold; APPI % of Example #98 (beta amyloid production; Conc 20 μg/ml): 95.7% |
| C=CCCC(O)[C@@H](NS(=O)(=O)c1cccc(Cl)c1)[C@@H](C)CC (stereo partly drawn) [Example 200, 3-chloro-N-{(1S)-2-hydroxy-1-[(1S)-1-methylpropyl]-5-hexenyl}benzenesulfonamide] | 1.85 | 1 (1=non-toxic) | – | – |
| CC[C@H](C)[C@H](NS(=O)(=O)c1ccc(F)cc1)C(O)C1CCCC1 (stereo partly drawn) [Example 127, N-{(1S,2S)-1-[cyclopentyl(hydroxy)methyl]-2-methylbutyl}-4-fluorobenzenesulfonamide] | 2.97 | 1 (1=non-toxic) | – | – |
| 3-chloro-N-{(1S)-2-hydroxy-2-isopropenyl-3-methyl-1-[(18)-1-methylpropyl]-3-butenyl}benzenesulfonamide [Example 257] | – | 1 (1=non-toxic) | 1 (1=non-toxic) | APPI Fold Increase (beta amyloid production; Conc 10 μg/ml, luciferase activity over diluent control): 2.54 fold; APPI % of Example #98 (beta amyloid production; Conc 10 μg/ml): 94.5%; APPI Fold Increase (beta amyloid production; [3]): 2.5 fold; APPI % of Example #98 (beta amyloid production; Conc 20 μg/ml): 68.8% |
| CC[C@H](C)[C@H](NS(=O)(=O)c1ccc(Br)cc1)C(C)O (stereo partly drawn) [Example 145, 4-bromo-N-[(1S,2S)-1-(1-hydroxyethyl)-2-methylbutyl]benzenesulfonamide] | 3.9 | 1 (1=non-toxic) | – | – |
| C=CC(O)[C@@H](NS(=O)(=O)c1ccccc1F)[C@@H](C)CC (stereo partly drawn) [Example 206, 2-fluoro-N-{(1S)-2-hydroxy-1-[(1S)1-methylpropyl]-3-butenyl}benzenesulfonamide] | 1.9 | 1 (1=non-toxic) | – | – |
| CC[C@](C)(CO)NS(=O)(=O)c1ccc(Cl)cc1 [Example 97, 4-chloro-N-[(1R)-1-(hydroxymethyl)-1-methylpropyl]benzenesulfonamide] | – | – | 1 (1=non-toxic) | fold induction at 20 µg/mL (beta amyloid production; [2]): 1.5 |
| CCCCCC(O)(CCCCC)[C@@H](NS(=O)(=O)c1ccc(F)cc1)[C@@H](C)CC [Example 237, 4-fluoro-N-{(1S)-2-hydroxy-1-[(1S)-1-methylpropyl]-2-pentylheptyl}benzenesulfonamide] | 6.05 | 1 (1=non-toxic) | – | – |
| CC[C@H](C)[C@H](NS(=O)(=O)c1ccc(Br)cc1)C(O)C=C(C)C (stereo partly drawn) [Example 156, 4-bromo-N-{(1S)-2-hydroxy-4-methyl-1-[(1S)-1-methylpropyl]-3-pentenyl}benzenesulfonamide] | 2.01 | 1 (1=non-toxic) | – | fold induction at 3 µg/mL (beta amyloid production; Conc 3 μg/ml, luciferase activity over diluent control, read-out: APPI Fold Increase): 1.52; (%)APPI Toxicity (CHO-K1 cells; Conc 3 μg/ml): 1 (1=non-toxic) |
| CC[C@H](C)[C@H](NS(=O)(=O)c1ccccc1F)C(O)c1ccc(Cl)cc1 (stereo partly drawn) [Example 208, N-{(1S,2S)-1-[(4-chlorophenyl) (hydroxy)methyl]-2-methylbutyl}-2-fluorobenzenesulfonamide] | 2.01 | 1 (1=non-toxic) | – | – |
